Results: ChEMBL document CHEMBL5584240, “Evaluation of potency and metabolic stability of diphyllin-derived Vacuolar-ATPase inhibitors” (Eur J Med Chem, 2024)

Assays:
HEK293 = assay: Cytotoxicity against HEK293 cells incubated for 72 hrs by MTT assay; type: toxicity, cell-based; conditions: human, hek293, 72 h
[1] = target: Voltage-gated inwardly rectifying potassium channel KCNH2 (Homo sapiens, UniProt Q12809); assay: Inhibition of hERG at 10 uM relative to control; type: toxicity
[2] = Selectivity index, ratio of CC50 for HEK293 cells to EC50 for recombinant Ebola virus Mayinga expressing GFP infected in human HeLa cells with ATP6V0a2 KO; type: toxicity, cell-based; conditions: read-out: Ratio CC50/EC50
Ebolavirus [3] = assay: Antiviral activity against recombinant Ebola virus Mayinga expressing GFP infected in human HeLa cells with ATP6V0a2 KO assessed as reduction in viral entry into cells pretreated for 1 hr followed by viral infection measured after 24 to 48 hrs by imaging analysis; type: functional, organism-based; conditions: Orthoebolavirus
[4] = Selectivity index, ratio of CC50 for human primary macrophages to EC50 for recombinant Ebola virus Mayinga expressing GFP infected in human primary macrophages; type: toxicity; conditions: read-out: Ratio CC50/EC50
Ebolavirus [5] = assay: Antiviral activity against recombinant Ebola virus Mayinga expressing GFP infected in human primary macrophages assessed as reduction in infectivity pretreated for 1 hr followed by viral infection measured after 24 to 48 hrs by imaging analysis; type: functional, organism-based; conditions: Orthoebolavirus, Primary macrophage
[6] = Apparent volume of distribution during terminal phase in CD-1 mouse at 50 mg/kg, po by LC-MS/MS analysis; type: ADME, organism-based; conditions: in vivo, read-out: Vz/F
[7] = AUC (infinity) in CD-1 mouse at 50 mg/kg, po by LC-MS/MS analysis; type: ADME, organism-based; conditions: in vivo
[8] = Cmax in CD-1 mouse at 50 mg/kg, po by LC-MS/MS analysis; type: ADME, organism-based; conditions: in vivo
[9] = MRT in CD-1 mouse at 50 mg/kg, po by LC-MS/MS analysis; type: ADME, organism-based; conditions: in vivo
[10] = Tmax in CD-1 mouse at 50 mg/kg, po by LC-MS/MS analysis; type: ADME, organism-based; conditions: in vivo
[11] = AUC (0.25 to 24 hrs) in CD-1 mouse at 50 mg/kg, po by LC-MS/MS analysis; type: ADME, organism-based; conditions: in vivo
[12] = Half life in CD-1 mouse at 50 mg/kg, po by LC-MS/MS analysis; type: ADME, organism-based; conditions: in vivo
[13] = Apparent oral clearance in CD-1 mouse at 50 mg/kg, po by LC-MS/MS analysis; type: ADME, organism-based; conditions: in vivo

Voltage-gated inwardly rectifying potassium channel KCNH2, sequence (Q12809 whole entry): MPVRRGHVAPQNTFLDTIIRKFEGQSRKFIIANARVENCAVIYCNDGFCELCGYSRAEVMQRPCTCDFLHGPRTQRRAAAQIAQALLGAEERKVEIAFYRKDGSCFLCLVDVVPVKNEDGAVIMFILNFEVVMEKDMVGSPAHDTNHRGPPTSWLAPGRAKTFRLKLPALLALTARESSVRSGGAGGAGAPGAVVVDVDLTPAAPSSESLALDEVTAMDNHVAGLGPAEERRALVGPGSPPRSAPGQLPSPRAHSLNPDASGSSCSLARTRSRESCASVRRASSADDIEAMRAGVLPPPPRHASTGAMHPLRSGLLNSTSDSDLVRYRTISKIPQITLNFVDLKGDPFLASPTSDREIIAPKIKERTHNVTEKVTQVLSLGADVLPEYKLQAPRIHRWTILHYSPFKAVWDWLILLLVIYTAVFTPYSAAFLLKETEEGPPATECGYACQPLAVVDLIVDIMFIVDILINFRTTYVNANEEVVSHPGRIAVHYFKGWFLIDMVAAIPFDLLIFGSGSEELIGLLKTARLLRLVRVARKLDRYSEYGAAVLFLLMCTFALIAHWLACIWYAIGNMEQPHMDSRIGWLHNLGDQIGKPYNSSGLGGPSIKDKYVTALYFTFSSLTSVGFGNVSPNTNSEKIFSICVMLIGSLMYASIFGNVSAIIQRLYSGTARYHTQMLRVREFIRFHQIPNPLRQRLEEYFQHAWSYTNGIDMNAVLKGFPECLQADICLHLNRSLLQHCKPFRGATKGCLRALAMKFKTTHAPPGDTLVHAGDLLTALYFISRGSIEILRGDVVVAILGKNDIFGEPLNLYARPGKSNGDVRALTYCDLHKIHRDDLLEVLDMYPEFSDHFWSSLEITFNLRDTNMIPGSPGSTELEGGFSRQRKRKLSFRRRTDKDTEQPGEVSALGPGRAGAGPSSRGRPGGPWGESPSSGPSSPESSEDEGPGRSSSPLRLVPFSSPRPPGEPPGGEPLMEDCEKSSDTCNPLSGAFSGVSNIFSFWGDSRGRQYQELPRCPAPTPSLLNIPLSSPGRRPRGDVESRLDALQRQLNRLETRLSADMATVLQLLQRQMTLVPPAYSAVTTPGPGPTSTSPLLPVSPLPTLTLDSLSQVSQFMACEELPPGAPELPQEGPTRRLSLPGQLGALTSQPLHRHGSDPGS

SMILES | CC50 (HEK293) | inhibition (INH) [1] | selectivity ratio [2] | EC50 (Ebolavirus [3]) | also measured
COc1cc2c(OCCCN3CCN(C)CC3)c3c(c(-c4ccc5c(c4)OCO5)c2cc1OC)C(=O)OC3 | 12000 nM | 75% | > 630 | 7 nM | 
COc1cc2c(OCCCN3CC4CC3CO4)c3c(c(-c4ccc5c(c4)OCO5)c2cc1OC)C(=O)OC3 (stereo not given) | 52000 nM | 73% | > 660 | 48 nM | 
COc1cc2c(OC3COC3)c3c(c(-c4ccc5c(c4)OCO5)c2cc1OC)C(=O)OC3 | 72000 nM | 15% | > 79 | 318 nM | 
COc1cc2c(OCCCN3CC4CCC(C3)N4C)c3c(c(-c4ccc5c(c4)OCO5)c2cc1OC)C(=O)OC3 | > 80000 nM | 100% | > 3400 | 10 nM | selectivity ratio [4]: 577; EC50 (Ebolavirus [5]): 10 nM
COc1cc2c(OCCCN3CC4CCC3CN4C)c3c(c(-c4ccc5c(c4)OCO5)c2cc1OC)C(=O)OC3 (stereo not given) | 54000 nM | 90% | > 1020 | 26 nM | selectivity ratio [4]: 3240; EC50 (Ebolavirus [5]): 2 nM
COc1cc2c(OCCCN3[C@@H]4CC[C@H]3COC4)c3c(c(-c4ccc5c(c4)OCO5)c2cc1OC)C(=O)OC3 | > 80000 nM | 76% | > 190 | 143 nM | 
COc1cc2c(OCC#N)c3c(c(-c4ccc5c(c4)OCO5)c2cc1OC)C(=O)OC3 | > 80000 nM | 6% | > 140 | 182 nM | 
COc1cc2c(OCCCN3CC4CC3CN4C)c3c(c(-c4ccc5c(c4)OCO5)c2cc1OC)C(=O)OC3 (stereo not given) | > 80000 nM | 72% | > 210 | 116 nM | 
COc1cc2c(OCC(O)CN3CCN(C)CC3)c3c(c(-c4ccc5c(c4)OCO5)c2cc1OC)C(=O)OC3 (stereo not given) | > 80000 nM | 36% | > 420 | 54 nM | selectivity ratio [4]: > 753; EC50 (Ebolavirus [5]): 33 nM
COc1cc2c(OCCN3CCN(C)CC3)c3c(c(-c4ccc5c(c4)OCO5)c2cc1OC)C(=O)OC3 | > 80000 nM | 79% | 300 | 36 nM | selectivity ratio [4]: 170; EC50 (Ebolavirus [5]): 30 nM
COc1cc2c(OCCCN3CCOCC3)c3c(c(-c4ccc5c(c4)OCO5)c2cc1OC)C(=O)OC3 | > 80000 nM | 11% | > 230 | 95 nM | 
COCCN1CCN(CC(O)COc2c3c(c(-c4ccc5c(c4)OCO5)c4cc(OC)c(OC)cc24)C(=O)OC3)CC1 (stereo not given) |  | 51% | > 580 | 44 nM | 
COc1cc2c(OCCCN3CC4CCC3CO4)c3c(c(-c4ccc5c(c4)OCO5)c2cc1OC)C(=O)OC3 (stereo not given) | 80000 nM | 54% | > 1200 | 28 nM | selectivity ratio [4]: 319; EC50 (Ebolavirus [5]): 19 nM
CO/C1=C\C(C)=C\[C@@H](C)[C@@H](O)[C@@H](C)C/C(C)=C/C=C/[C@H](OC)[C@@H]([C@@H](C)[C@@H](O)[C@H](C)[C@@]2(O)C[C@@H](O)[C@H](C)[C@@H](C(C)C)O2)OC1=O [BAFILOMYCIN A1] | 37000 nM |  | 470 | 3 nM | 
COc1cc2c(OCCCN3CCN(S(C)(=O)=O)CC3)c3c(c(-c4ccc5c(c4)OCO5)c2cc1OC)C(=O)OC3 | > 80000 nM | 16% | > 550 | 35 nM | 
COC(=O)N1CCN(CC(O)COc2c3c(c(-c4ccc5c(c4)OCO5)c4cc(OC)c(OC)cc24)C(=O)OC3)CC1 (stereo not given) | > 80000 nM | 23% | > 740 | 41 nM | 
COc1cc2c(OC3CNC3)c3c(c(-c4ccc5c(c4)OCO5)c2cc1OC)C(=O)OC3 | > 80000 nM | 89% | > 150 | 214 nM | 
COc1cc2c(OCCN3CCOCC3)c3c(c(-c4ccc5c(c4)OCO5)c2cc1OC)C(=O)OC3 | > 80000 nM |  | > 38 | 651 nM | 
COc1cc2c(OCCCC#N)c3c(c(-c4ccc5c(c4)OCO5)c2cc1OC)C(=O)OC3 | > 80000 nM | 24% | 130 | 37 nM | Vd/F [6]: 2.85 L; AUC [7]: 7.191 µM·h; Cmax [8]: 3560 nM; MRT [9]: 5.9 h; Tmax [10]: 0.5 h; AUC(0-t) [11]: 6.86 µM·h; t1/2 [12]: 6.4 h; CL/F [13]: 5.18 mL/min
COc1cc2c(OC3CCNC3)c3c(c(-c4ccc5c(c4)OCO5)c2cc1OC)C(=O)OC3 (stereo not given) | > 80000 nM | 97% | 300 | 86 nM | 
COc1cc2c(O[C@@H]3O[C@H](C)[C@@H](O)[C@H](O)[C@H]3O)c3c(c(-c4ccc5c(c4)OCO5)c2cc1OC)C(=O)OC3 [PATENTIFLORIN A] | > 80000 nM | < 5% | > 59 | 428 nM | selectivity ratio [4]: 295; Cmax [8]: 101 nM; Tmax [10]: 0.25 h; EC50 (Ebolavirus [5]): 85 nM
COc1cc2c(OCCCN3CCN(C=O)CC3)c3c(c(-c4ccc5c(c4)OCO5)c2cc1OC)C(=O)OC3 | > 80000 nM | 34% | > 610 | 31 nM | 
COc1cc2c(OCCCN3CCN(C(C)=O)CC3)c3c(c(-c4ccc5c(c4)OCO5)c2cc1OC)C(=O)OC3 | > 80000 nM | 11% | > 590 | 42 nM | 
COc1cc2c(OCCCN3[C@@H]4CC[C@H]3CN(C)C4)c3c(c(-c4ccc5c(c4)OCO5)c2cc1OC)C(=O)OC3 | 71000 nM | 72% | > 940 | 18 nM | selectivity ratio [4]: 313; EC50 (Ebolavirus [5]): 25 nM
COc1cc2c(OCCCN3CCNC(=O)C3)c3c(c(-c4ccc5c(c4)OCO5)c2cc1OC)C(=O)OC3 | > 80000 nM | 5% |  | 441 nM | 
COc1cc2c(OC3CCOCC3)c3c(c(-c4ccc5c(c4)OCO5)c2cc1OC)C(=O)OC3 | > 80000 nM | 36% | 43 | 124 nM | 
COC(=O)N1CCN(CCCOc2c3c(c(-c4ccc5c(c4)OCO5)c4cc(OC)c(OC)cc24)C(=O)OC3)CC1 | > 80000 nM | 30% | > 110 | 22 nM | 
COc1cc2c(OCC(O)CN3CCOCC3)c3c(c(-c4ccc5c(c4)OCO5)c2cc1OC)C(=O)OC3 (stereo not given) | > 80000 nM | 16% | > 160 | 157 nM | 
COc1cc2c(OCC(O)CN3CC4CCC(C3)N4C)c3c(c(-c4ccc5c(c4)OCO5)c2cc1OC)C(=O)OC3 (stereo not given) | > 80000 nM | 99% | 2000 | 7 nM | 
COc1cc2c(OCCCN3CC4CCC(C3)O4)c3c(c(-c4ccc5c(c4)OCO5)c2cc1OC)C(=O)OC3 | > 80000 nM | 22% | > 190 | 127 nM | 
